Tests used:
BTK enzyme = target: T1, BTK enzyme (Homo sapiens, UniProt Q06187); assay: In vitro BTK kinase assay: BTK-POLYGAT-LS assay; format: biochemical; conditions: ATP 10 μM, read-out: IC50 (10uMATP)
T1 construct: purchased Upstate 14-552
Method in brief: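 Human BTK activity was measured with final 10 μM ATP and 100 nM polyGAT substrate in pH 7.5 Tris buffer with 10 mM MgCl2, DTT, Triton X-100 and casein.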

[1] = target: BTK (phospho-BTK) in human whole blood (Homo sapiens, UniProt Q06187); assay: In vitro PD assay in human whole blood (pBTK assay)
BTK (phospho-BTK) in human whole blood, sequence (Q06187 whole entry): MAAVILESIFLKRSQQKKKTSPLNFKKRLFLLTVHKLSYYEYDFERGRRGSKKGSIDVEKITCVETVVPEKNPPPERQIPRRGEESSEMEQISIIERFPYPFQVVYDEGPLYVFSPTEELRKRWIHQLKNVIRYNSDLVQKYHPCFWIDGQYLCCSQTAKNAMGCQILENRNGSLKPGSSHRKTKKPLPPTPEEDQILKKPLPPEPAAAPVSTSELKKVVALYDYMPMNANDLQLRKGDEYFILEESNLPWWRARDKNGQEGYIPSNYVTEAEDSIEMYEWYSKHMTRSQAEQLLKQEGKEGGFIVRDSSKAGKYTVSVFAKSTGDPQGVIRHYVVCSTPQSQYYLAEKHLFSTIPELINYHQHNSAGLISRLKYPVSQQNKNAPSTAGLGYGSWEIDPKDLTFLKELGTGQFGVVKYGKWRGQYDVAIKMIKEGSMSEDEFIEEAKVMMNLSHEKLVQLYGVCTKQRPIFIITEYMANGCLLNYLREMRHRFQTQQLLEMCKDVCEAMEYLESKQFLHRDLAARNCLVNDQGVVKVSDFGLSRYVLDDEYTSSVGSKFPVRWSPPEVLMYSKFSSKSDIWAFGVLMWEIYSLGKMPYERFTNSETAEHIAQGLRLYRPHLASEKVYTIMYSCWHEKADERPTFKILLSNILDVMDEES

T1 sequence (Q06187 whole entry): as above

| SMILES | IC50 (BTK enzyme) [nM] | IC50 [1] [nM] |
| --- | --- | --- |
| COCCn1cc(Nc2nccc(-c3ccc4c(c3)CCCC[C@H]4NC(=O)N3CC(OC(C)(C)C)C3)n2)cn1 [Example I-176, (R)-3-(tert-butoxy)-N-(2-(2-((1-(2-methoxyethyl)-1H-pyrazol-4-yl)amino)pyrimidin-4-yl)-6,7,8,9-tetrahydro-5H-benzo[7]annulen-5-yl)azetidine-1-carboxamide] | < 10 | < 500 |
| Cc1cc(-c2ccnc(Nc3cnn([C@@H]4CCN(C)C4)c3)n2)ccc1CNC(=O)c1cnc(C(C)(C)C)s1 [Example I-123, (R)-2-(tert-butyl)-N-(2-methyl-4-(2-((1-(1-methylpyrrolidin-3-yl)-1H-pyrazol-4-yl)amino)pyrimidin-4-yl)benzyl)thiazole-5-carboxamide] | < 10 | < 500 |
| Cc1cc(-c2cc(Nc3cc4n(n3)CCN(C)C4)ncn2)ccc1CN1CCc2c(cnn2C(C)(C)C)C1=O [Example I-309, 1-tert-butyl-5-[[2-methyl-4-[6-[(5-methyl-6,7-dihydro-4H-pyrazolo[1,5-a]pyrazin-2-yl)amino]pyrimidin-4-yl]phenyl]methyl]-6,7-dihydropyrazolo[4,3-c]pyridin-4-one] | < 10 | < 500 |
| Cc1cc(-c2ccnc(Nc3cnn4c3CCC4)n2)ccc1CNC(=O)N1CCC(C(C)(C)C)C1 (stereo not shown) [Example I-194, 3-(tert-butyl)-N-(4-(2-((5,6-dihydro-4H-pyrrolo[1,2-b]pyrazol-3-yl)amino)pyrimidin-4-yl)-2-methylbenzyl)pyrrolidine-1-carboxamide] | < 10 | < 500 |
| Cc1cc(-c2ccnc(Nc3cnn(C)c3)n2)ccc1CNC(=O)c1cc2c(s1)CCCO2 [Example I-15, N-(2-methyl-4-(2-((1-methyl-1H-pyrazol-4-yl)amino)pyrimidin-4-yl)benzyl)-6,7-dihydro-5H-thieno[3,2-b]pyran-2-carboxamide] | < 10 | < 500 |
| CC(C)OC1CN(C(=O)NC2CCCCc3cc(-c4ccnc(Nc5cnn([C@H]6CCOC6)c5)n4)ccc32)C1 (stereo partly drawn) [Example I-338, 3-isopropoxy-N-[2-[2-[[1-[(3S)-tetrahydrofuran-3-yl]pyrazol-4-yl]amino]pyrimidin-4-yl]-6,7,8,9-tetrahydro-5H-benzo[7]annulen-5-yl]azetidine-1-carboxamide] | < 10 | < 500 |
| CCn1cc(Nc2nccc(-c3ccc4c(c3)CCCCC4NC(=O)N3CC(OC(C)C)C3)n2)cn1 (stereo not shown) [Example I-166, N-(2-(2-((1-ethyl-1H-pyrazol-4-yl)amino)pyrimidin-4-yl)-6,7,8,9-tetrahydro-5H-benzo[7]annulen-5-yl)-3-isopropoxyazetidine-1-carboxamide] | < 10 | < 500 |
| Cc1cc(-c2ccnc(Nc3cnn(C4CCN(C)CC4)c3)n2)ccc1CN1Cc2nc(C(C)(C)C)sc2C1=O [Example I-289, 2-tert-butyl-5-[[2-methyl-4-[2-[[1-(1-methyl-4-piperidyl)pyrazol-4-yl]amino]pyrimidin-4-yl]phenyl]methyl]-4H-pyrrolo[3,4-d]thiazol-6-one] | < 10 | < 500 |
| CC(C)OC1CN(C(=O)NC2CCCCc3cc(-c4ccnc(Nc5cnn(C6CCN(C)CC6F)c5)n4)ccc32)C1 (stereo not shown) [Example I-348, N-[2-[2-[[1-(3-fluoro-1-methyl-4-piperidyl)pyrazol-4-yl]amino]pyrimidin-4-yl]-6,7,8,9-tetrahydro-5H-benzo[7]annulen-5-yl]-3-isopropoxy-azetidine-1-carboxamide] | < 10 | < 500 |
| Cc1cc(-c2cc(Nc3cc4n(n3)CC(=O)N(C)C4)ncn2)ccc1CNC(=O)N1CC(OC(C)(C)C)C1 [Example I-239, 3-(tert-butoxy)-N-(2-methyl-4-(6-((5-methyl-6-oxo-4,5,6,7-tetrahydropyrazolo-[1,5-a]pyrazin-2-yl)amino)pyrimidin-4-yl)benzyl) azetidine-1-carboxamide] | < 10 | < 500 |
| Cn1cc(Nc2nccc(-c3ccc(CNC(=O)c4cnn(C(C)(C)C)c4)c(Cl)c3)n2)cn1 [Example I-291, 1-tert-butyl-N-[[2-chloro-4-[2-[(1-methylpyrazol-4-yl)amino]pyrimidin-4-yl]phenyl]methyl]pyrazole-4-carboxamide] | < 10 | < 500 |
| CN1CCn2nc(Nc3cc(-c4ccc(CNC(=O)c5cnn(C(C)(C)C)c5)c(C(F)(F)F)c4)ncn3)cc2C1 [Example I-241, 1-(tert-butyl)-N-(4-(6-((5-methyl-4,5,6,7-tetrahydropyrazolo[1,5-a]pyrazin-2-yl)amino)pyrimidin-4-yl)-2-(trifluoromethyl)benzyl)-1H-pyrazole-4-carboxamide] | < 10 | < 500 |
| Cc1cc(-c2ccnc(Nc3cnn(C4CCN(C)CC4)c3)n2)ccc1CNC(=O)N1CC(OC(C)(C)C)C1 [Example I-302, 3-tert-butoxy-N-[[2-methyl-4-[2-[[1-(1-methyl-4-piperidyl)pyrazol-4-yl]amino]pyrimidin-4-yl]phenyl]methyl]azetidine-1-carboxamide] | < 10 | < 500 |
| Cn1cc(Nc2nccc(-c3cc(Cl)c(CNC(=O)c4cnc(C(C)(C)C)s4)cc3F)n2)cn1 [Example I-118, 2-(tert-butyl)-N-(2-chloro-5-fluoro-4-(2-((1-methyl-1H-pyrazol-4-yl)amino)pyrimidin-4-yl)benzyl)thiazole-5-carboxamide] | < 10 | < 500 |

Other lines, results leading:

| IC50 (BTK enzyme) [nM] | IC50 [1] [nM] | SMILES |
| --- | --- | --- |
| < 10 | < 500 | Cc1cc(-c2ccnc(Nc3cnn([C@H]4CCN(C)C4)c3)n2)ccc1CNC(=O)c1cnc(C(C)(C)C)s1 [Example I-125, (S)-2-(tert-butyl)-N-(2-methyl-4-(2-((1-(1-methylpyrrolidin-3-yl)-1H-pyrazol-4-yl)amino)pyrimidin-4-yl)benzyl)thiazole-5-carboxamide] |
| < 10 | < 500 | Cc1cc(-c2ccnc(Nc3cnn(C(C)C)c3)n2)ccc1CNC(=O)c1cnc(C(C)(C)C)s1 [Example I-41, 2-(tert-butyl)-N-(4-(2-((1-isopropyl-1H-pyrazol-4-yl)amino)pyrimidin-4-yl)-2-methylbenzyl)thiazole-5-carboxamide] |
| < 10 | 500 to 1500 | Cn1cc(Nc2nccc(-c3ccc(CNC(=O)c4cc5c(s4)CCOC5)c(C(F)(F)F)c3)n2)cn1 [Example I-115, N-(4-(2-((1-methyl-1H-pyrazol-4-yl)amino)pyrimidin-4-yl)-2-(trifluoromethyl)benzyl)-6,7-dihydro-4H-thieno[3,2-c]pyran-2-carboxamide] |
| < 10 | < 500 | CN1CC(n2cc(Nc3nccc(-c4ccc(CNC(=O)c5cc(C(C)(C)C)on5)c(C(F)(F)F)c4)n3)cn2)C1 [Example I-355, 5-tert-butyl-N-[[4-[2-[[1-(1-methylazetidin-3-yl)pyrazol-4-yl]amino]pyrimidin-4-yl]-2-(trifluoromethyl)phenyl]methyl]isoxazole-3-carboxamide] |
| < 10 | < 500 | Cc1cc(-c2cc(Nc3cc4n(n3)CCN(C)C4C)ncn2)ccc1CNC(=O)N1CCC(C(C)(C)C)C1 (stereo not shown) [Example I-284, 3-tert-butyl-N-[[4-[6-[(4,5-dimethyl-6,7-dihydro-4H-pyrazolo[1,5-a]pyrazin-2-yl)amino]pyrimidin-4-yl]-2-methyl-phenyl]methyl]pyrrolidine-1-carboxamide] |
| < 10 | 500 to 1500 | Cc1cc(-c2ccnc(Nc3cnn(C)c3)n2)ccc1CNC(=O)N1CCC(C(F)(F)F)CC1 [Example I-19, N-(2-methyl-4-(2-((1-methyl-1H-pyrazol-4-yl)amino)pyrimidin-4-yl)benzyl)-4-(trifluoromethyl)piperidine-1-carboxamide] |
| < 10 | < 500 | Cc1cc(-c2ccnc(Nc3cnn(C)c3)n2)ccc1CNC(=O)c1cnc(C(C)(C)C)s1 [Example I-1, 2-(tert-butyl)-N-(2-methyl-4-(2-((1-methyl-1H-pyrazol-4-yl)amino)pyrimidin-4-yl)benzyl)thiazole-5-carboxamide] |
| < 10 | < 500 | CC(C)OC1CN(C(=O)NC2CCCCc3cc(-c4ccnc(Nc5cnn(C(C)C)c5)n4)ccc32)C1 (stereo not shown) [Example I-167, 3-isopropoxy-N-(2-(2-((1-isopropyl-1H-pyrazol-4-yl)amino)pyrimidin-4-yl)-6,7,8,9-tetrahydro-5H-benzo[7]annulen-5-yl)azetidine-1-carboxamide] |
| < 10 | < 500 | Cc1cc(-c2cc(Nc3cc4n(n3)CCOC4)ncn2)ccc1CNC(=O)c1cnn(C(C)(C)C)c1 [Example I-237, 1-(tert-butyl)-N-(4-(6-((6,7-dihydro-4H-pyrazolo[5,1-c][1,4]oxazin-2-yl)amino)pyrimidin-4-yl)-2-methylbenzyl)-1H-pyrazole-4-carboxamide] |
| < 10 | < 500 | COCCn1cc(Nc2nccc(-c3ccc(CNC(=O)N4CC(OC(C)C)C4)c(C(F)(F)F)c3)n2)cn1 [Example I-351, 3-isopropoxy-N-[[4-[2-[[1-(2-methoxyethyl)pyrazol-4-yl]amino]pyrimidin-4-yl]-2-(trifluoromethyl)phenyl]methyl]azetidine-1-carboxamide] |
| < 10 | 500 to 1500 | Cc1cc(-c2ccnc(Nc3cnn(C4CCOCC4)c3)n2)ccc1CNC(=O)c1cnc(C(C)(C)C)s1 [Example I-38, 2-(tert-butyl)-N-(2-methyl-4-(2-((1-(tetrahydro-2H-pyran-4-yl)-1H-pyrazol-4-yl)amino)pyrimidin-4-yl)benzyl)thiazole-5-carboxamide] |
| < 10 | < 500 | Cc1cc(-c2cc(Nc3cc4n(n3)CCCN(CCO)C4)ncn2)ccc1CNC(=O)c1cnn(C(C)(C)C)c1 [Example I-235, 1-(tert-butyl)-N-(4-(6-((5-(2-hydroxyethyl)-5,6,7,8-tetrahydro-4H-pyrazolo[1,5-a][1,4]diazepin-2-yl)amino)pyrimidin-4-yl)-2-methylbenzyl)-1H-pyrazole-4-carboxamide] |
